Data published in US11839683B2, “Method of rapidly achieving therapeutic concentrations of triptans for treatment of migraines” (EMERGEX USA CORPORATION, priority 2016, dated 2023).
Like-named read-outs stand apart in the source and are kept apart here.

Columns and labels:
migraine = settings: cited from earlier work
[1] = in vivo
Source text: (§1) This was a single-center, open-label, randomized five-way crossover study (Part 1) followed by a sequential study of two additional treatments (Parts 2 and 3). After obtaining informed consent and establishing eligibility, each subject received each of the seven study treatments once, followed by in-clinic monitoring and extensive blood sample collection for pharmacokinetic analysis. […] Plasma samples from the initial dosing days were sent to the analytical laboratory for analysis, and tolerability for each of the dose levels was summarized. […] During Part 3, subjects received a single 3.8 mg patch (applied with a 0.52 J applicator) and also completed identical procedures to the previous dosing days. After completion of the seven dosing days, subjects were assessed one final time and dismissed from the study.
(§2) PK parameters were summarized by treatment group using descriptive statistics (arithmetic means, standard deviations, coefficients of variation, sample size, minimum, maximum, and median).

clinical = settings: human, in vivo
Procedure: The final treatment administered was 3.8 mg on a 10 cm^2 patch using an applicator with 0.52 Joule of application energy in the intracutaneous microneedle system described herein. The products tested were:
as §1
Twenty subjects were enrolled in the study, 10 males and 10 females. The subjects mean age was 29 years±3.5 years with a mean BMI of 24.4±3.5.
as §2
Graphs of apparent dose linearity and proportionality of PK parameters (AUCt, AUCinf and Cmax) were compiled.

[2] = cited from earlier work
[3] = TABLET 80 mg, 1 hour, Sheftell et al 2003
[4] = TABLET 80 mg, 2 hour, Sheftell et al 2003
[5] = TABLET 80 mg, 4 hour, Sheftell et al 2003
[6] = TABLET 10 mg, 1 hour, Tfelt-Hansen et al, 1998
[7] = TABLET 10 mg, 2 hour, Tfelt-Hansen et al, 1998
[8] = WAFER 5 mg, 1 hour, Ahrens et al, 1999
[9] = WAFER 5 mg, 2 hour, Ahrens et al, 1999
[10] = WAFER 10 mg, 1 hour, Ahrens et al, 1999
[11] = WAFER 10 mg, 2 hour, Ahrens et al, 1999
[12] = TABLET 100 mg, 1 hour, Tfelt-Hansen et al, 1998
[13] = TABLET 100 mg, 2 hour, Tfelt-Hansen et al, 1998
[14] = TABLET 2.5 mg, 1 hour, Bomhof et al, 1999
[15] = TABLET 2.5 mg, 2 hour, Bomhof et al, 1999

Which “% PAIN FREE” value (migraine; [3]) does the source give for `CN1CCC[C@@H]1Cc1c[nH]c2ccc(CCS(=O)(=O)c3ccccc3)cc12` [Eletriptan] here?
The value was 10.0%.

What about the “% PAIN RELIEF” value (migraine; [3]) of the same molecule?
The value was 32.0%.

And the “% PAIN FREE” value (migraine; [4])?
The value was 27.0%.

What about the “% PAIN RELIEF” value (migraine; [4]) of the same molecule?
The value was 59.0%.

And the “% PAIN FREE” value (migraine; [5])?
The value was 49.0%.

And the “% PAIN RELIEF” value (migraine; [5])?
Its value is 79.0%.

What does the source list for `CNCCc1c[nH]c2ccc(C[C@H]3COC(=O)N3)cc12` [N-desmethyl zolmitriptan]?
Mean AUCinf of N-desmethyl metabolite ([1]; human): 14.55 ng·H/mL; Mean Cmax of N-desmethyl metabolite ([1]; human): 2.08 ng/mL; Tmax of N-desmethyl metabolite ([1]; human): 54.7 to 65.0 min; Mean AUCinf of N-desmethyl metabolite ([1]; human, 0.48 mg): 1.38 ng·H/mL; Mean Cmax of N-desmethyl metabolite ([1]; human, 0.48 mg): 0.22 ng/mL; Mean AUCinf of N-desmethyl metabolite ([1]; human, 3.8 mg): 8.17 ng·H/mL; Mean Cmax of N-desmethyl metabolite ([1]; human, 3.8 mg): 1.77 ng/mL; elimination half life (t1/2) of the metabolite ([1]; human, po): 2.7-3.31 H; time to peak plasma concentration of the N-desmethyl metabolite [1]: around 1 hour; time to peak plasma concentration of the N-desmethyl metabolite ([1]; po): 2.7 h

For `CN(C)CCc1c[nH]c2ccc(C[C@H]3COC(=O)N3)cc12` [Oral Zolmi], which AUC0-last/Dose (clinical; po, 2.5 mg) is on record?
Its AUC0-last/Dose is 8.6.

What about the “Tmax Med (Range)” value (clinical; po, 2.5 mg) of the same molecule?
The value was 60 (30-240).

Which results are given for `CN(C)CCc1c[nH]c2ccc(Cn3cncn3)cc12` [Rizatriptan]?
% PAIN FREE (migraine; [6]): 10.4%; % PAIN RELIEF (migraine; [6]): 36.6%; % PAIN FREE (migraine; [7]): 40.3%; % PAIN RELIEF (migraine; [7]): 67.0%; % PAIN FREE (migraine; [8]): 7.7%; % PAIN RELIEF (migraine; [8]): 39.8%; % PAIN FREE (migraine; [9]): 34.8%; % PAIN RELIEF (migraine; [9]): 58.6%; % PAIN FREE (migraine; [10]): 13.0%; % PAIN RELIEF (migraine; [10]): 44.9%; % PAIN FREE (migraine; [11]): 42.2%; % PAIN RELIEF (migraine; [11]): 74.1%

With `CNS(=O)(=O)Cc1ccc2[nH]cc(CCN(C)C)c2c1` [SC Suma] as the molecule, how does the “Tmax Med (Range)” value (clinical; sc, 6 mg) read?
Its value is 10 (5-20).

With `CNS(=O)(=O)Cc1ccc2[nH]cc(CCN(C)C)c2c1` [Sumatriptan, sumatriptan] as the molecule, how does the “Tmax after oral tablet administration” value ([2]; oral tablet) read?
Its value is “about 2 hours”.

What about the “bioavailability, oral administration (as a succinate)” value ([2]; oral) of the same molecule?
Its value is “about 15%”.

What about the “Tmax achieved earlier than the conventional tablet” value ([2]; rapid-release tablet formulation, on average) of the same molecule?
The value was 10 to 15 min.

What about the “% PAIN FREE” value (migraine; [12]) of the same molecule?
Its value is 7.8%.

And the “% PAIN RELIEF” value (migraine; [12])?
Its value is 27.9%.

And the “% PAIN FREE” value (migraine; [13])?
Its value is 32.8%.

What about the “% PAIN RELIEF” value (migraine; [13]) of the same molecule?
The value was 61.8%.

For `CN[C@@H]1CCc2[nH]c3ccc(C(N)=O)cc3c2C1` [frovatriptan], which “efficacy in 2-hour response, 2-hour pain free compared to the other triptans” value (migraine; oral) is on record?
Its value is “lowest efficacy”.

For `CNS(=O)(=O)CCc1ccc2[nH]cc(C3CCN(C)CC3)c2c1` [naratriptan], which “% PAIN FREE” value (migraine; [14]) is on record?
The value was 3.3%.

And the “% PAIN RELIEF” value (migraine; [14])?
Its value is 27.7%.

What about the “% PAIN FREE” value (migraine; [15]) of the same molecule?
Its value is 20.7%.

And the “% PAIN RELIEF” value (migraine; [15])?
The value was 48.4%.

What about the “pain freedom at 2 hours” value (migraine; lowest oral dose) of the same molecule?
Its value is 18%.

And the “pain relief at 2 hours” value (migraine; lowest oral dose)?
The value was 49%.
